Assay results taken from US12522594B2, “2-heteroaryl-3-oxo-2,3-dihydropyridazine-4-carboxamides for the treatment of cancer” (Deutsches Krebsforschungszentrum, priority 2017, dated 2026).

Columns and labels:
[1] = molecular target: T1, AHR (Homo sapiens, UniProt P35869); assay: In vitro assay 1: antagonism in human cell line (transactivation assay, U87 cells prestimulated with kynurenic acid, DRE firefly luciferase reporter); type: cell-based; design: host or cells: U87 glioblastoma cells, stably transfected with DRE firefly luciferase and renilla reporter constructs; conditions: 150 uM kynurenic acid, 20 hours, read-out: Assay 1: AHR-luc Hum Antagonism IC50
T1 sequence (P35869 11-848): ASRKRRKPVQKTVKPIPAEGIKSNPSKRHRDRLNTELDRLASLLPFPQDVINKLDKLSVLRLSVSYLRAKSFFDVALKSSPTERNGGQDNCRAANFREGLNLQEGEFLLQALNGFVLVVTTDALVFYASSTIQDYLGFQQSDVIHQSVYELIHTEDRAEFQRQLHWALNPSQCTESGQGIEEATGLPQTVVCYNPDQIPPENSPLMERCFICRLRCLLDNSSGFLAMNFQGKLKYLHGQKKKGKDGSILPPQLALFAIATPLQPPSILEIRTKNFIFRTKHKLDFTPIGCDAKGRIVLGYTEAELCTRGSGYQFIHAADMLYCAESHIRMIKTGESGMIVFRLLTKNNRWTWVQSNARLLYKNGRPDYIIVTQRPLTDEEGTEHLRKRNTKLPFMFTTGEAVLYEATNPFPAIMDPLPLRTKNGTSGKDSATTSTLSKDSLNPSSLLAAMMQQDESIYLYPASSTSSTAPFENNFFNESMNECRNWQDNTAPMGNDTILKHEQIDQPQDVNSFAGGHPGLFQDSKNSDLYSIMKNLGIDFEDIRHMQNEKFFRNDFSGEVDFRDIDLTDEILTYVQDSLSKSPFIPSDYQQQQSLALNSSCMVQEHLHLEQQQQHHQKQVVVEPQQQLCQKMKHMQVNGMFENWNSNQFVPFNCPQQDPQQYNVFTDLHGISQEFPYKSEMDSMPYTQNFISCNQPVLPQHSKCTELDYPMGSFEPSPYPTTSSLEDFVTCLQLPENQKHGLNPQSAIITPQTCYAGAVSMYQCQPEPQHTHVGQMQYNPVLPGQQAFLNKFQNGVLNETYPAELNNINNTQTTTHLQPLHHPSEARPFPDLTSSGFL
Procedure: (§1) Transactivation Assay in Human Cell Line (In Vitro Assays 1 and 2)
(§2) Transactivation assays were carried out in U87 glioblastoma cells (ATCC) endogenously expressing AHR. In addition the cells were stably transfected with an AHR inducible firefly luciferase reporter gene construct that carried AHR-binding sites (DRE) in its promoter and a renilla reporter gene construct with constitutively active promoter. Kynurenic acid is an endogenous AHR activating ligand and was used to prestimulate test cells prior to testing the antagonistic properties of compounds.
In Vitro Assay 1: Antagonism in Human Cell Line
Normalization was done by positive and negative controls.

[2] = molecular target: T1, AHR; assay: In vitro assay 2: agonism in human cell line (transactivation assay, U87 cells, DRE firefly luciferase reporter); type: cell-based; design: host or cells: U87 glioblastoma cells, stably transfected with DRE firefly luciferase and renilla reporter constructs; conditions: no kynurenic acid, 20 hours, read-out: Assay 2: AHR-luc Hum Agonism IC50
Procedure: as §1, §2
In Vitro Assay 2: Agonism in Human Cell Line
As positive activation control cells were incubated with 300 uM kynurenic acid. Normalization was done by positive and negative controls.

SMILES | IC50 [1] [nM] | IC50 [2] [nM]
O=C(N[C@H]1CCC[C@H]1O)c1cc(-c2ccc(Cl)cc2)nn(-c2cncc(F)c2)c1=O [Example 129, 6-(4-Chlorophenyl)-2-(5-fluoropyridin-3-yl)-N-[(1S,2R)-2-hydroxycyclopentyl]-3-oxo-2,3-dihydropyridazine-4-carboxamide] | 5.53 | > 20000
O=C(N[C@@H]1CCCC[C@@H]1O)c1cc(-c2ccc(Cl)cc2)nn(-c2cccnc2)c1=O (relative stereo) [Example 133, 6-(4-Chlorophenyl)-N-[(cis)-2-hydroxycyclohexyl]-3-oxo-2-(pyridin-3-yl)-2,3-dihydropyridazine-4-carboxamide] | 7.52 | > 20000
O=C(NC[C@H](O)C(F)(F)F)c1cc(-c2ccc(Cl)cc2)nn(-c2cncc(F)c2)c1=O [Example 128, 6-(4-Chlorophenyl)-2-(5-fluoropyridin-3-yl)-3-oxo-N-[(2S)-3,3,3-trifluoro-2-hydroxypropyl]-2,3-dihydropyridazine-4-carboxamide] | 5.05 | > 20000
O=C(N[C@H]1CCCC(F)(F)[C@@H]1O)c1cc(-c2ccc(Cl)cc2)nn(-c2cccnc2)c1=O (single isomer, unassigned; enantiomer 2) [Example 145, 6-(4-Chlorophenyl)-N-[(trans)-3,3-difluoro-2-hydroxycyclohexyl]-3-oxo-2-(pyridin-3-yl)-2,3-dihydropyridazine-4-carboxamide, Enantiomer 2] | 6.9 | > 20000
Cn1cc(-n2nc(-c3ccc(Cl)cc3)cc(C(=O)N[C@H]3CCCC[C@H]3O)c2=O)cn1 [Example 48, 6-(4-Chlorophenyl)-N-[(1S,2R)-2-hydroxycyclohexyl]-2-(1-methyl-1H-pyrazol-4-yl)-3-oxo-2,3-dihydropyridazine-4-carboxamide] | 2.49 | > 20000
O=C(N[C@H]1CCCC(F)(F)[C@@H]1O)c1cc(-c2ccc(OC(F)(F)F)cc2)nn(-c2cccnc2)c1=O (relative stereo) [Example 140, N-[(trans)-3,3-Difluoro-2-hydroxycyclohexyl]-3-oxo-2-(pyridin-3-yl)-6-[4-(trifluoromethoxy)phenyl]-2,3-dihydropyridazine-4-carboxamide] | 9.55 | > 20000
O=C(N[C@@H]1COC[C@@H]1O)c1cc(-c2ccc(C(F)(F)F)cc2)nn(-c2cccnc2)c1=O (racemic) [Example 107, N-[(3RS,4RS)-4-Hydroxytetrahydrofuran-3-yl]-3-oxo-2-(pyridin-3-yl)-6-[4-(trifluoromethyl)phenyl]-2,3-dihydropyridazine-4-carboxamide] | 12.3 | > 20000
O=C(NC[C@H](O)C(F)(F)F)c1cc(-c2ccc(Cl)cc2)nn(-c2cnn(C3CCC3)c2)c1=O [Example 40, 6-(4-Chlorophenyl)-2-(1-cyclobutyl-1H-pyrazol-4-yl)-3-oxo-N-[(2S)-3,3,3-trifluoro-2-hydroxypropyl]-2,3-dihydropyridazine-4-carboxamide] | 1100 | > 20000
C[C@@H](CO)NC(=O)c1cc(-c2ccc(C(F)F)nc2)nn(-c2cccnc2)c1=O [Example 180, 6-[6-(Difluoromethyl)pyridin-3-yl]-N-[(2S)-1-hydroxypropan-2-yl]-3-oxo-2-(pyridin-3-yl)-2,3-dihydropyridazine-4-carboxamide] | 794 | > 20000
C[C@@H](CO)NC(=O)c1cc(-c2ccc(C(F)(F)F)nc2)nn(-c2cccnc2)c1=O [Example 166, N-[(2S)-1-Hydroxypropan-2-yl]-3-oxo-2-(pyridin-3-yl)-6-[6-(trifluoromethyl)pyridin-3-yl]-2,3-dihydropyridazine-4-carboxamide] | 180 | –
O=C(NC[C@H](O)C(F)(F)F)c1cc(-c2ccc(C(F)(F)F)cc2)nn(-c2cccnc2)c1=O [Example 117, 3-Oxo-2-(pyridin-3-yl)-N-[(2S)-3,3,3-trifluoro-2-hydroxypropyl]-6-[4-(trifluoromethyl)phenyl]-2,3-dihydropyridazine-4-carboxamide] | – | > 20000
O=C(N[C@H]1COC[C@@H]1O)c1cc(-c2ccc(Cl)cc2)nn(-c2cccnc2)c1=O (relative stereo) [Example 168, 6-(4-Chlorophenyl)-N-[(trans)-4-hydroxytetrahydrofuran-3-yl]-3-oxo-2-(pyridin-3-yl)-2,3-dihydropyridazine-4-carboxamide] | 240 | –
O=C(NCC(O)C(F)(F)F)c1cc(-c2ccc(C(F)(F)F)cc2)nn(-c2cccnc2)c1=O (racemic) [Example 108, 3-Oxo-2-(pyridin-3-yl)-N-[(2RS)-3,3,3-trifluoro-2-hydroxypropyl]-6-[4-(trifluoromethyl)phenyl]-2,3-dihydropyridazine-4-carboxamide] | – | > 20000
O=C(N[C@H]1CCCC[C@H]1O)c1cc(-c2ccc(C(F)(F)F)cc2)nn(-c2cccnc2)c1=O [Example 106, N-[(1S,2R)-2-Hydroxycyclohexyl]-3-oxo-2-(pyridin-3-yl)-6-[4-(trifluoromethyl)phenyl]-2,3-dihydropyridazine-4-carboxamide] | – | > 20000

Results, then the compound that gave them:

IC50 [1] [nM] | IC50 [2] [nM] | SMILES
0.502 | > 20000 | CC(C)(O)C(NC(=O)c1cc(-c2ccc(C(F)(F)F)cc2)nn(-c2cccnc2)c1=O)C(F)(F)F (single isomer, unassigned; (+)) [Example 197, (+)-3-Oxo-2-(pyridin-3-yl)-N-(1,1,1-trifluoro-3-hydroxy-3-methylbutan-2-yl)-6-[4-(trifluoromethyl)phenyl]-2,3-dihydropyridazine-4-carboxamide]
13.9 | > 20000 | O=C(NCC(O)C(F)F)c1cc(-c2ccc(C(F)(F)F)cc2)nn(-c2cccnc2)c1=O (single isomer, unassigned; (+)) [Example 247, (+)-N-(3,3-Difluoro-2-hydroxypropyl)-3-oxo-2-(pyridin-3-yl)-6-[4-(trifluoromethyl)phenyl]-2,3-dihydropyridazine-4-carboxamide]
174 | > 20000 | CC(C)(O)CNC(=O)c1cc(-c2ccc(C(F)(F)F)nc2)nn(-c2cncc(F)c2)c1=O [Example 344, 2-(5-Fluoropyridin-3-yl)-N-(2-hydroxy-2-methylpropyl)-3-oxo-6-[6-(trifluoromethyl)pyridin-3-yl]-2,3-dihydropyridazine-4-carboxamide]
91.1 | > 20000 | C[C@@H](CO)NC(=O)c1cc(-c2ccc(Cl)cc2)nn(-c2cnn(C(F)F)c2)c1=O [Example 272, 6-(4-Chlorophenyl)-2-[1-(difluoromethyl)-1H-pyrazol-4-yl]-N-[(2S)-1-hydroxypropan-2-yl]-3-oxo-2,3-dihydropyridazine-4-carboxamide]
1.33 | > 20000 | Cn1cc(-n2nc(-c3ccc(OC(F)F)cc3)cc(C(=O)NC(C(C)(C)O)C(F)(F)F)c2=O)cn1 (single isomer, unassigned) [Example 306, 6-[4-(Difluoromethoxy)phenyl]-2-(1-methyl-1H-pyrazol-4-yl)-3-oxo-N-(1,1,1-trifluoro-3-hydroxy-3-methylbutan-2-yl)-2,3-dihydropyridazine-4-carboxamide]
81.5 | > 20000 | C[C@@H](NC(=O)c1cc(-c2ccc(Cl)cc2)nn(-c2cccnc2)c1=O)C(C)(C)O [Example 302, 6-(4-Chlorophenyl)-N-[(2R)-3-hydroxy-3-methylbutan-2-yl]-3-oxo-2-(pyridin-3-yl)-2,3-dihydropyridazine-4-carboxamide]
18 | – | O=C(N[C@@H]1COC[C@@H]1O)c1cc(-c2ccc(C(F)(F)F)cc2)nn(-c2cccnc2)c1=O (single isomer, unassigned) [Example 252, (−)-N-cis-4-Hydroxytetra-hydrofuran-3-yl-3-oxo-2-(pyridin-3-yl)-6-[4-(trifluoromethyl)phenyl]-2,3-dihydropyridazine-4-carboxamide]
– | > 20000 | CC(NC(=O)c1cc(-c2ccc(Cl)cc2)nn(-c2cccnc2)c1=O)C(O)C(F)(F)F (single isomer, unassigned) [Example 300, 6-(4-Chlorophenyl)-3-oxo-2-(pyridin-3-yl)-N-(4,4,4-trifluoro-3-hydroxybutan-2-yl)-2,3-dihydropyridazine-4-carboxamide]
